Measurements reported in patent US5198445A, “Composition and use of substituted 3-thio-2-propynenitriles as industrial antimicrobials” (The Dow Chemical Company, priority 1992, dated 1993).
≈ marks a conversion by molar mass, not a printed value. Read-outs that look alike come from different tables or passages of the source.

How the values were obtained:
Bacillus subtilis (Bs) = assay: MIC in nutrient agar, Bacillus subtilis; type: cell-based, Bacillus subtilis ATCC 8473; conditions: Bacillus subtilis, read-out: Minimum Inhibitory Concentration, Bs
Protocol: (§1) The minimum inhibitory concentration (MIC) for the compounds listed in Table I is determined for 9 bacteria, using nutrient agar, and 7 yeast and fungi, using malt yeast agar. A one percent solution of the test compound is prepared in a mixture of acetone and water. Nutrient agar is prepared at pH 6.8, representing a neutral medium, and at pH 8.2, representing an alkaline medium. The nutrient agars are prepared by adding 23 g of nutrient agar to one-liter of deionized water. In addition, the alkaline medium is prepared by adjusting a 0.04M solution of N-[tris-(hydroxymethyl)methyl]-glycine buffered deionized water with concentrated sodium hydroxide to a pH of […]. Malt yeast agar is prepared by adding 3 g yeast extract and 45 g malt agar per liter of deionized water. The specific agar is dispensed in 30 ml aliquots into 25×200 mm test tubes, capped and autoclaved for 15 minutes at 115° C. The test tubes containing the agar are cooled in a water bath until the temperature of the agar is 48° C. Then, an appropriate amount of the one percent solution of the test compound is added (except in the controls where no compound is added) to the respective test tubes so that the final concentrations are 500, 250, 100, 50, 25, 10, 5, 2.5, 1.0 and zero parts per million of the test compound in the agar, thus having a known concentration of test compound dispersed therein. The contents of the test tubes are then transferred to respective petri plates. After drying for 24 hours, the petri plates containing nutrient agar are inoculated with bacteria and those containing malt yeast agar are inoculated with yeast and fungi.
(§2) The inoculation with bacteria is accomplished by using the following procedure. Twenty-four hour-cultures of each of the bacteria are prepared by incubating the respective bacteria in tubes containing nutrient broth for 24 hours at 30° C. in a shaker. Dilutions of each of the 24 hour-cultures are made so that nine separate suspensions (one for each of the nine test bacteria) are made, each containing 10^8 colony forming units (CFU) per ml of suspension of a particular bacteria. Aliquots of 0.3 ml of each of the bacterial suspensions are used to fill the individual wells of Steer's Replicator. For each microbial suspension, 0.3 ml was used to fill three wells (i.e., three wells of 0.3 ml each) so that for the nine different bacteria, 27 wells are filled. The Steer's Replicator is then used to inoculate both the neutral and alkaline pH nutrient agar petri plates.
(§3) The inoculated petri plates are incubated at 30° C. for 48 hours and then read to determine if the test compound which is incorporated into the agar prevented growth of the respective bacteria.
(§4) Table II lists the bacteria, yeast and fungi used in the MIC test described above along with their respective American Type Culture Collection (ATCC) identification numbers.
(§5) The following MIC and MEC antimicrobial tests, whose results are shown in Tables XIII-XVII, are performed using the same methods as described hereinabove.

Candida albicans (Ca) = assay: MIC in malt yeast agar, Candida albicans; type: cell-based, Candida albicans ATCC 10231; conditions: malt yeast agar; read-out: Minimum Inhibitory Concentration, Ca
Protocol: as §1
(§6) The inoculation with the yeast and fungi is accomplished as follows. Cultures of yeast and fungi are incubated for seven days on malt yeast agar at 30° C. These cultures are used to prepare suspensions by the following procedure. A suspension of each organism is prepared by adding 10 ml of sterile saline and 10 microliters of octylphenoxy polyethoxy ethanol (TRITON® X-100, a trademark of Rohm & Haas Company) to the agar slant of yeast or fungi. The sterile saline/octylphenoxy polyethoxy ethanol solution is then agitated with a sterile swab to suspend the microorganism grown on the slant. Each resulting suspension is diluted into sterile saline (1 part suspension: 9 parts sterile saline). Aliquots of these dilutions are placed in individual wells of Steer's Replicator and petri plates inoculated as previously described. The petri plates are incubated at 30° C. and read after 48 hours for yeast and 72 hours for fungi.
as §4, §5

Trichoderma viride (Tv) = assay: MIC in malt yeast agar, Trichoderma viride; type: cell-based, Trichoderma viride ATCC 8678; conditions: malt yeast agar; read-out: Minimum Inhibitory Concentration, Tv
Protocol: as §1, §6, §4, §5

[1] = test system: Pseudomonas aeruginosa (PRD-10); assay: MIC in nutrient agar, Pseudomonas aeruginosa PRD-10; type: cell-based, Pseudomonas aeruginosa ATCC 15442
Protocol: as §1, §2, §3, §4, §5

Aspergillus niger (An) = assay: MIC in malt yeast agar, Aspergillus niger; type: cell-based, Aspergillus niger ATCC 16404; conditions: malt yeast agar; read-out: Minimum Inhibitory Concentration, An
Protocol: as §1, §6, §4, §5

[2] = test system: Aureobasidium pullulan (Ap); assay: MIC in malt yeast agar, Aureobasidium pullulan; type: cell-based, Aureobasidium pullulan ATCC 16622; conditions: malt yeast agar; read-out: Minimum Inhibitory Concentration, Ap
Protocol: as §1, §6, §4, §5

[3] = test system: Staphylococcus aureus (Sa); assay: MIC in nutrient agar, Staphylococcus aureus; type: cell-based, Staphylococcus aureus ATCC 6538; conditions: Staphylococcus aureus, read-out: Minimum Inhibitory Concentration, Sa
Protocol: as §1, §2, §3, §4, §5

[4] = test system: Salmonella choleraesuis (Sc); assay: MIC in nutrient agar, Salmonella choleraesuis; type: cell-based, Salmonella choleraesuis ATCC 10708
Protocol: as §1, §2, §3, §4, §5

[5] = test system: Klebsiella pneumoniae (Kp); assay: MIC in nutrient agar, Klebsiella pneumoniae; type: cell-based, Klebsiella pneumoniae ATCC 8308
Protocol: as §1, §2, §3, §4, §5

[6] = test system: Saccharomyces cerevisiae (Sc); assay: MIC in malt yeast agar, Saccharomyces cerevisiae; type: cell-based, Saccharomyces cerevisiae ATCC 4105; conditions: read-out: Minimum Inhibitory Concentration, Sc
Protocol: as §1, §6, §4, §5

[7] = test system: Pseudomonas aeruginosa (Pa); assay: MIC in nutrient agar, Pseudomonas aeruginosa; type: cell-based, Pseudomonas aeruginosa ATCC 10145
Protocol: as §1, §2, §3, §4, §5

Proteus vulgaris (Pv) = assay: MIC in nutrient agar, Proteus vulgaris; type: cell-based, Proteus vulgaris ATCC 881
Protocol: as §1, §2, §3, §4, §5

[8] = test system: Enterobacter aerogenes (Ea); assay: MIC in nutrient agar, Enterobacter aerogenes; type: cell-based, Enterobacter aerogenes ATCC 13048
Protocol: as §1, §2, §3, §4, §5

[9] = test system: Penicillium chrysogenum (Pc); assay: MIC in malt yeast agar, Penicillium chrysogenum; type: cell-based, Penicillium chrysogenum ATCC 9480; conditions: malt yeast agar; read-out: Minimum Inhibitory Concentration, Pc
Protocol: as §1, §6, §4, §5

Fusarium oxysporum (Fo) = assay: MIC in malt yeast agar, Fusarium oxysporum; type: cell-based, Fusarium oxysporum ATCC 48112; conditions: malt yeast agar; read-out: Minimum Inhibitory Concentration, Fo
Protocol: as §1, §6, §4, §5

Escherichia coli (Ec) = assay: MIC in nutrient agar, Escherichia coli; type: cell-based, Escherichia coli ATCC 11229
Protocol: as §1, §2, §3, §4, §5

[10] = Pseudomonas aeruginosa, pH 8.2; read-out: Minimum Inhibitory Concentration, PRD
[11] = pH 6.8, read-out: Minimum Inhibitory Concentration, Kp
[12] = pH 8.2, read-out: Minimum Inhibitory Concentration, Kp
[13] = pH 6.8, read-out: Minimum Inhibitory Concentration, Pa
[14] = pH 8.2, read-out: Minimum Inhibitory Concentration, Pa
[15] = pH 6.8, read-out: Minimum Inhibitory Concentration, Pv
[16] = pH 8.2, read-out: Minimum Inhibitory Concentration, Pv

| Compound | MIC (Bacillus subtilis (Bs); pH 6.8) [µg/mL] | MIC (Bacillus subtilis (Bs); pH 8.2) [µg/mL] | MIC (Candida albicans (Ca)) [µg/mL] | MIC (Trichoderma viride (Tv)) [µg/mL] | MIC [1, 10] [µg/mL] | MIC (Aspergillus niger (An)) [µg/mL] | MIC [2] [µg/mL] | MIC ([3]; pH 6.8) [µg/mL] | MIC ([3]; pH 8.2) [µg/mL] | MIC [5, 11] [µg/mL] | MIC [5, 12] [µg/mL] | MIC [7, 13] [µg/mL] | MIC [7, 14] [µg/mL] | MIC (Proteus vulgaris (Pv); [15]) [µg/mL] | MIC (Proteus vulgaris (Pv); [16]) [µg/mL] | MIC [9] [µg/mL] | MIC (Fusarium oxysporum (Fo)) [µg/mL] | other results |
| --- | --- | --- | --- | --- | --- | --- | --- | --- | --- | --- | --- | --- | --- | --- | --- | --- | --- | --- |
| CCCCCCCCCCSC#CC#N [E, 3-decylthio-2-propynenitrile] | 100 (≈ 448 µM) | 25 (≈ 112 µM) | > 500 | 500 (≈ 2240 µM) | 25 (≈ 112 µM) | > 500 | > 500 | 25 (≈ 112 µM) | 25 (≈ 112 µM) | > 500 | > 500 | > 500 | 500 (≈ 2240 µM) | > 500 | > 500 | 500 (≈ 2240 µM) | 500 (≈ 2240 µM) | MIC ([1]; Pseudomonas aeruginosa, pH 6.8, read-out: Minimum Inhibitory Concentration, PRD): > 500 µg/mL; MIC ([4]; Salmonella enterica, CHOLERAESUIS, pH 6.8, read-out: Minimum Inhibitory Concentration, Sc): > 500 µg/mL; MIC ([4]; Salmonella enterica, CHOLERAESUIS, pH 8.2, read-out: Minimum Inhibitory Concentration, Sc): > 500 µg/mL; MIC [6]: 25 µg/mL (≈ 112 µM); MIC ([8]; Klebsiella aerogenes, pH 6.8, read-out: Minimum Inhibitory Concentration, Ea): > 500 µg/mL; MIC ([8]; Klebsiella aerogenes, pH 8.2, read-out: Minimum Inhibitory Concentration, Ea): > 500 µg/mL; MIC (Escherichia coli (Ec); Escherichia coli, pH 6.8, read-out: Minimum Inhibitory Concentration, Ec): > 500 µg/mL; MIC (Escherichia coli (Ec); Escherichia coli, pH 8.2; read-out: Minimum Inhibitory Concentration, Ec): 100 µg/mL (≈ 448 µM) |
| CCCCCCCCCCCCSC#CC#N [F, 3-dodecylthio-2-propynenitrile] | 100 (≈ 398 µM) | 100 (≈ 398 µM) | > 500 | > 500 | 100 (≈ 398 µM) | > 500 | > 500 | > 500 | 25 (≈ 99.4 µM) | > 500 | > 500 | > 500 | 500 (≈ 1990 µM) | > 500 | > 500 | 500 (≈ 1990 µM) | > 500 | MIC ([1]; Pseudomonas aeruginosa, pH 6.8; read-out: Minimum Inhibitory Concentration, PRD): > 500 µg/mL; MIC ([4]; Salmonella enterica, CHOLERAESUIS, pH 6.8; read-out: Minimum Inhibitory Concentration, Sc): > 500 µg/mL; MIC ([4]; Salmonella enterica, CHOLERAESUIS, pH 8.2; read-out: Minimum Inhibitory Concentration, Sc): > 500 µg/mL; MIC ([6]; malt yeast agar): > 500 µg/mL; MIC ([8]; Klebsiella aerogenes, pH 6.8; read-out: Minimum Inhibitory Concentration, Ea): > 500 µg/mL; MIC ([8]; Klebsiella aerogenes, pH 8.2; read-out: Minimum Inhibitory Concentration, Ea): > 500 µg/mL; MIC (Escherichia coli (Ec); Escherichia coli, pH 6.8; read-out: Minimum Inhibitory Concentration, Ec): > 500 µg/mL; MIC (Escherichia coli (Ec); Escherichia coli, pH 8.2, read-out: Minimum Inhibitory Concentration, Ec): > 500 µg/mL |
